Tests used:
mushroom tyrosinase = mushroom tyrosinase (Agaricus bisporus, UniProt C7FF04); test: In vitro mushroom tyrosinase inhibition (L-DOPA substrate); format: biochemical; details: 475 nm, read-out: IC50 (μM) ± SD, inhibitory tyrosinase activity
Protocol: The mushroom tyrosinase inhibitory activity was determined according to previous described method. Briefly, 168 μl of phosphate buffer (0.1 M, pH 6.8), 10 μl of mushroom tyrosinase (0.5 mg/ml, Sigma Chemical, St. Louis, MO) and 2 μl of the inhibitor solution were placed in the wells of a 96-well micro plate. After pre-incubation for 20 min at 37 °C, 20 μl of 2.0 mg/ml L-DOPA (3,4-dihydroxyphenylalanine, Sigma Chemical, St. Louis, MO) was added and the enzyme activity was measured at 475 nm every 60 s for 180 s in a Microplate Reader (Bio-Rad Laboratories, Inc., Hercules, CA). Kojic acid and phosphate buffer were respectively used as positive and negative control. The extent of inhibition by the test compounds was expressed as the percentage of concentration necessary to achieve 50% inhibition (IC50). The percentage of inhibition was calculated as follows: inhibitory rate (%) = [Ac − At)/Ac] × 100. Ac is the absorbance of the negative control and At is the absorbance of the test compound. Each concentration was analysed in three independent experiments run in triplicate. The IC50 values were determined by the data analysis software GraphPad Prism 8 (La Jolla, CA).
The tyrosinase inhibition measurements of compounds 6a–6x were carried out using L-DOPA as substrate. Kojic acid was selected as a positive control compound. […]. […] Moreover, inhibitory activity of compound with hydroxyl group at papa position is better than the inhibitory activity of compound with hydroxyl group at meta position, and inhibitory activity of compound with hydroxyl group at meta position is better than the inhibitory activity of compound with hydroxyl group at ortho position. […]. […] In addition, with the increase of atomic radius, the inhibitory activity gradually decreases. (3) The inhibitory activity of alkoxy substituted compound is better than that of alkyl substituted compound. (4) Comparing the tyrosinase inhibitory activity of compounds with halogen atom (6b–6d, 6q–6s) and compounds with methyl or methoxy (6e–6f, 6t–6u), when the hydrogen (R^2) was replaced by the methyl (R^2), the inhibitory activity was decreased.

[1] = DPPH free radical scavenging activity assay; details: DPPH 150 μM, 30 min, 517 nm; read-out: DPPH/IC50 (μM) ± SD
Protocol: The anti-oxidation effect on DPPH radical was determined by a slightly modified version of a previously described DPPH radical scavenging assay. Reaction mixtures consisted of 100 μl of DPPH (150 μM), 20 μl of increasing concentration of test compounds and the volume was adjusted to 200 μl in each well with DMSO. The assay solution was then incubated at room temperature (25 °C) for 30 min in the dark. After the incubation, absorbance at 517 nm was measured by using UV-2600 spectrophotometer. The experiments were undertaken in triplicate. DMSO was used as a control. Ascorbic acid was used as antioxidant standard for comparison of the activity. The calculation of DPPH radical scavenging activity was followed by this formula: DPPH radical scavenging activity %=absorbance of standard−absorbance of sample/Absorbance of standard×100

[2] = ABTS radical cation scavenging activity assay; details: 734 nm; read-out: ABTS+/IC50 (μM) ± SD
Protocol: ABTS free radical scavenging activity was performed according to the procedure described by Zhang et al.[40] Test solution of ABTS decolourisation assay was prepared by mixing 2.45 mM potassium persulfate and 7 mM ABTS at 8:12 volume/volume ratio. The working solution was kept in the dark at room temperature for 12–18 h. Before ABTS radical scavenging test, the ABTS test solution was diluted with DMSO to absorbance of 0.7 (±0.02) at 734 nm. One millilitre of diluted ABTS test solution was added to 10 μl of DMSO or test sample. After initial mixing, the working solution was kept in the dark at room temperature for 2–6 min, and the absorbance was measured at 734 nm. This test was carried out in triplicate. DMSO was used as a control. Ascorbic acid was used as antioxidant standard for comparison of the activity. The absorbance of test samples was calculated by the following formula. ABTS scavenging ability %=absorbance of standard−absorbance of sample/absorbance of standard×100.

Chain of mushroom tyrosinase (C7FF04 1-392): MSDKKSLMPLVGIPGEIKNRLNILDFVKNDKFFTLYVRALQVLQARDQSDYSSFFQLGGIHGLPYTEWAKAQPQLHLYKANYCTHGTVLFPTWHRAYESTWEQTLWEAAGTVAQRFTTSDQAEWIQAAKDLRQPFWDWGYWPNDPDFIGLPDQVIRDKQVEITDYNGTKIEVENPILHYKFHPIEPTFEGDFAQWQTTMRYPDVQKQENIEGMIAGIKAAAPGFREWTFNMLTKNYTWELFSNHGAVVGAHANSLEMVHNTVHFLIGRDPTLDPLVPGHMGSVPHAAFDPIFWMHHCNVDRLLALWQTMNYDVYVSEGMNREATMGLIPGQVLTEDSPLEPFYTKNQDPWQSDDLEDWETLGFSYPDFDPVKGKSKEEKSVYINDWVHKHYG

## 2-(4-((1-((5-Hydroxy-4-oxo-4H-pyran-2-yl)methyl)-1H-1,2,3-triazol-5-yl)methoxy)-3-methoxybenzylidene)hydrazinecarbothioamide [Compound 6n]
Mushroom tyrosinase
  IC50: 8.4 ± 0.009 µM
[1]
  IC50: 176.2 ± 0.061 µM
[2]
  IC50: 44.4 ± 0.068 µM

From article PMC11983575, “Study on the synthesis and biological activity of kojic acid triazol thiosemicarbazide Schiff base derivatives” (Journal of Enzyme Inhibition and Medicinal Chemistry, 2025)
